Earlier results, collected in patent US20250364101A1, “Dabigatran Dosing” (Closed Loop Medicine Ltd, priority 2023, published 2025).
Where two headings read alike, the source gives them in different places.

Experiments:
[1] = not given; remark: listed apart in the source
[2] = not given; remark: listed apart in the source

risk of intracranial bleeds (compared with adjusted-dose warfarin) | accumulation of the drug ([1]; daily doses of approximately 150-300 mg) | elimination via the kidney as share of total clearance ([1]; in vivo) | remainder going into the faeces ([1]; oral) | relationship between maximal plasma level and dose administered ([1]; single dose) | effect of food on total absorption ([1]; with food) | Change in Drug Level Exposure (AUC), increase ([2]; Amiodarone) | Change in Drug Level Exposure (AUC) ([2]; CrCl = 30, relative to median CrCl of 69) | Change in Drug Level Exposure (AUC) ([2]; CrCl = 50, relative to median CrCl of 69) | Change in Drug Level Exposure (AUC), decrease ([2]; PPIs) | Change in Drug Level Exposure (AUC), increase ([2]; Verapamil) | increase in distribution volume (Vd) ([2]; above 80 kg) | Change in Drug Level Exposure (AUC), increase ([2]; females compared to men) | effect of low weight on Cmax ([2]; low weight) | Change in Drug Level Exposure (AUC), increase ([2]; patients with HF) | SMILES | outcome compared with warfarin (patients with nonvalvular AF) | Change in Drug Level Exposure (AUC), increase ([2]; South Asians compared to other ethnicities) | Change in activity: bleeding ([2]; coadministration of Asprin, clopidogrel) | Change in Drug Level Exposure (AUC), increase per year of age ([2]; older compared to 72 yr)
small reduction | – | – | – | – | – | – | – | – | – | – | – | – | – | – | CCCCCCOC(=O)NC(=N)c1ccc(NCc2nc3cc(C(=O)N(CCC(=O)OCC)c4ccccn4)ccc3n2C)cc1 [Dabigatran etexilate] | superior to warfarin | – | – | –
– | approximately 1.7 fold | 80% | ~90% | linear relationship | does not affect | 12% increase | 1.8 fold | 1.3 fold | ~13% decrease | 23% increase | 0.8 % per kg | ~9% increase in females compared to men | will increase | ~7% increase in patients with HF | [H]/N=C(/N)c1ccc(NCc2nc3cc(C(=O)N(CCC(=O)O)c4ccccn4)ccc3n2C)cc1 [dabigatran] | – | ~26% increase in South Asians compared to other ethnicities | Coadministration will increase chance of bleeding | 0.41% increase per year older compared to 72 yr % per year
